Test systems include SK-MEL-5 melanoma; NCI-H226 lung; RXF 393 renal; ACHN renal; M14 melanoma; OVCAR-8 ovarian; NCI/ADR-RES ovarian; HCT-116 colon; CCRF-CEM leukemia; NCI-H23 lung.
Common to all, as to test: DTP human tumour cell line panel, 48 h

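1) Cells in 96-well plates. 2) Compound, 48 h, 5 concentrations. 3) Linear interpolation between surrounding doses. 4) Unreached endpoint = highest concentration. The concentration for 50% growth inhibition is given as GI50. TGI marks complete inhibition of growth.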

For the compound `COc1ccc(-c2oc3cc(OC)c(OC)c(O)c3c(=O)c2OC)cc1`, the TGI (in general, the concentration giving total growth inhibition) in the test on SK-MEL-5 melanoma is greater than 100 µM; in the test with NCI-H226 lung it was greater than 100 µM; in the test on RXF 393 renal, 78.8 µM; with ACHN renal, greater than 100 µM; in the test with M14 melanoma it was greater than 100 µM; with OVCAR-8 ovarian, greater than 100 µM. The concentration for total growth inhibition (TGI) with NCI/ADR-RES ovarian, with HCT-116 colon and in the test on CCRF-CEM leukemia was greater than 100 µM throughout.
`O=C1/C(=C\c2ccc(Br)cc2)CCCc2ccccc21`: the TGI in the test with NCI-H226 lung was 28.6 µM; in the test on RXF 393 renal, 43.3 µM; in the test on ACHN renal it was 30.6 µM; in the test on M14 melanoma it was greater than 100 µM; in the test on OVCAR-8 ovarian it was 28.2 µM; in the test with NCI/ADR-RES ovarian, 27.2 µM. Also, the results for the TGI in the test on HCT-116 colon, in the test on NCI-H23 lung and with CCRF-CEM leukemia were 24.8 µM, 36.4 µM and 53 µM, respectively.
For the compound `Nc1ccccc1C#CC(=O)c1cccc(C(F)(F)F)c1`, the TGI with SK-MEL-5 melanoma was 6.17 µM; with NCI-H226 lung, 18 µM; in the test on RXF 393 renal it was 5.07 µM; in the test with M14 melanoma, 5.1 µM; with NCI/ADR-RES ovarian it was 47.3 µM; in the test on HCT-116 colon, greater than 100 µM. For the same compound, the TGI came to 4.71 µM in the test on NCI-H23 lung and 4.42 µM with CCRF-CEM leukemia.
`O=C(N/N=C\c1cccc2ccccc12)Nc1ccccc1`: the TGI in the test with SK-MEL-5 melanoma, in the test on NCI-H226 lung, in the test with RXF 393 renal, in the test on M14 melanoma, with OVCAR-8 ovarian and in the test with NCI/ADR-RES ovarian was greater than 100 µM in each case. In addition, the TGI in the test on HCT-116 colon, in the test on NCI-H23 lung and in the test on CCRF-CEM leukemia was greater than 100 µM throughout.
As to `CC1(C)CC(=O)c2c(nc3c(ccc4ccccc43)c2-c2ccc(NC(=O)CCC(=O)Nc3ccc(-c4c5c(nc6c4ccc4ccccc46)CC(C)(C)CC5=O)cc3)cc2)C1`, the TGI in the test on SK-MEL-5 melanoma, in the test on NCI-H226 lung, with RXF 393 renal, with ACHN renal, in the test with M14 melanoma and in the test on OVCAR-8 ovarian was greater than 100 µM in each case. The TGI in the test with NCI/ADR-RES ovarian, in the test with HCT-116 colon and in the test on CCRF-CEM leukemia was greater than 100 µM in each case.
For `Cc1ccc(Cl)cc1N=NC(=O)NNc1cc(Cl)ccc1C`, the TGI in the test on SK-MEL-5 melanoma worked out at 29.1 µM; in the test with NCI-H226 lung, 43.1 µM; in the test with RXF 393 renal, 72.7 µM; with M14 melanoma, 34.7 µM; in the test on NCI/ADR-RES ovarian, 63.9 µM; in the test on HCT-116 colon it was 51.6 µM. The TGI came to 44.3 µM in the test with NCI-H23 lung and 54.4 µM with CCRF-CEM leukemia.
For `COc1cc(C2c3cc4c(cc3OC(NNS(=O)(=O)c3ccc(C)cc3)C2C)OCO4)cc(OC)c1OC` (stereo unspecified), the TGI in the test with SK-MEL-5 melanoma was 25 µM; with NCI-H226 lung it was 13.2 µM; in the test with RXF 393 renal it was 23.8 µM; with ACHN renal, greater than 52 µM; in the test with M14 melanoma, 14.5 µM; with OVCAR-8 ovarian, 46.8 µM. Moreover, the values for the TGI in the test with NCI/ADR-RES ovarian, in the test on HCT-116 colon and with NCI-H23 lung were greater than 100 µM, 12.1 µM and greater than 74.6 µM, respectively.
As for `Cc1cc(N/N=C/c2nc(-c3ccc(Cl)cc3)oc2C)c2cc(Br)ccc2n1`, the GI50 (in general, the concentration at which growth is held to half of that of the control) in the test on SK-MEL-5 melanoma is 11.7 µM; in the test on NCI-H226 lung, 17.4 µM; in the test on RXF 393 renal, 4.1 µM; in the test with ACHN renal, 2.25 µM; in the test on M14 melanoma, 2.02 µM; with OVCAR-8 ovarian, 2.41 µM. Besides, the GI50 in the test on NCI/ADR-RES ovarian is 2.17 µM; with HCT-116 colon it was 2 µM; in the test with NCI-H23 lung it was 6 µM. Besides, the TGI in the test with SK-MEL-5 melanoma came to 23.9 µM; in the test on NCI-H226 lung it was 50.4 µM; with RXF 393 renal it was 17.2 µM; in the test with ACHN renal it was 5.01 µM; with M14 melanoma, 4.55 µM; in the test on OVCAR-8 ovarian, 5.97 µM. Further, the TGI in the test on NCI/ADR-RES ovarian came to 4.94 µM; in the test with HCT-116 colon, 4.04 µM; in the test on NCI-H23 lung, 23.6 µM.
Regarding `Cc1cccc2oc3c(c(=O)c12)CC(O)C(C)(C)O3` (stereo unspecified), the TGI in the test with SK-MEL-5 melanoma, in the test on NCI-H226 lung, in the test on RXF 393 renal, in the test on ACHN renal, with M14 melanoma and with NCI/ADR-RES ovarian was greater than 100 µM throughout. In addition, the TGI in the test on HCT-116 colon, in the test with NCI-H23 lung and with CCRF-CEM leukemia was greater than 100 µM throughout.
With `CC(=O)C(C(=O)c1ccc(C)cc1)[C@H]1OC(C)(C)O[C@H]1[C@H]1COC(C)(C)O1` (stereo partly specified), the TGI in the test with SK-MEL-5 melanoma was 12.2 µM; in the test on NCI-H226 lung, 29.2 µM; in the test with RXF 393 renal it was 9.01 µM; in the test on ACHN renal, 13.2 µM; in the test with M14 melanoma, 14.4 µM; in the test on OVCAR-8 ovarian it was 12.6 µM. Besides, the TGI is greater than 50 µM in the test with NCI/ADR-RES ovarian, 6.81 µM in the test on HCT-116 colon and 10 µM in the test on NCI-H23 lung.
Consider `N=c1oc2ccccc2cc1-c1nc2ccccc2[nH]1`, for which the TGI with SK-MEL-5 melanoma is greater than 100 µM; with NCI-H226 lung, greater than 100 µM; in the test with RXF 393 renal, greater than 100 µM; in the test with ACHN renal it was 45.4 µM; with M14 melanoma, greater than 100 µM; in the test with OVCAR-8 ovarian it was greater than 100 µM. In addition, the TGI was 64.2 µM in the test on NCI/ADR-RES ovarian, greater than 100 µM in the test with HCT-116 colon and greater than 100 µM in the test on CCRF-CEM leukemia.
